According to publication PMC9746828, “Small-molecule PROTAC mediates targeted protein degradation to treat STAT3-dependent epithelial cancer” (JCI Insight, 2022):

Molecular target: STAT3 (Homo sapiens, UniProt P40763)
Assay: microscale thermophoresis (MST), recombinant human STAT3
Format: binding

STAT3, sequence (P40763 2-770): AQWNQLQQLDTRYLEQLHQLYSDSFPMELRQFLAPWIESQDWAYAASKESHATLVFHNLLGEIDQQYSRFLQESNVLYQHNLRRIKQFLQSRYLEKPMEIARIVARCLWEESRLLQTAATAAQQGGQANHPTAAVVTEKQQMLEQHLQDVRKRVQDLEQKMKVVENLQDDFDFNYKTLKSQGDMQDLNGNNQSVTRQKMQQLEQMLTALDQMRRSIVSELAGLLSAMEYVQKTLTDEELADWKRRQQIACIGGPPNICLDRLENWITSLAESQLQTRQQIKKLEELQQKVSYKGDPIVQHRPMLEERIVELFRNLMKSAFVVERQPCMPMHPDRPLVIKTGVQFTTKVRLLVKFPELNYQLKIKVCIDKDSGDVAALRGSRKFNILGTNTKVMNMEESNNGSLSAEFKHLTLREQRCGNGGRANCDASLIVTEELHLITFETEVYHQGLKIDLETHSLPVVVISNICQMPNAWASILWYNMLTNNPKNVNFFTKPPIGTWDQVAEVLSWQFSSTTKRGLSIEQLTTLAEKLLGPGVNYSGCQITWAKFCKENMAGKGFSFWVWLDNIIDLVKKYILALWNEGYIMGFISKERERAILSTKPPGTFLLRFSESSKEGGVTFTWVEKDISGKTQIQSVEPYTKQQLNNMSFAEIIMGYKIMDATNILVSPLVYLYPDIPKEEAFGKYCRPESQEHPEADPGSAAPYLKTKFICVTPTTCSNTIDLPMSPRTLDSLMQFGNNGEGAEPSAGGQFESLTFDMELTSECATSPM

CC(=O)O[C@@H]1C[C@H](O)[C@@]23CO[C@@H](O)[C@]1(C)[C@@H]2C[C@@H](O)[C@]1(C)[C@@H]3C(=O)[C@H](OC(C)=O)[C@@]2(C)[C@H](c3ccoc3)C[C@H]3O[C@]321 [TSN, toosendanin] gave a Kd of 296 nM.
